Earlier results on 4 compounds are cited in patent US6683169B2, “Nucleic acid encoding the human peptide histidine transporter 1 and methods of use thereof” (Rutgers, The State University of New Jersey, priority 2000, dated 2004).

Peptide text beside a SMILES is read from it.

For the data set, the target named is T1, rPHT1 (Rattus norvegicus, UniProt O09014).
T1 construct: host or cells: Xenopus oocytes
The conditions noted are these: rPHT1 in Xenopus oocytes; for inhibition of histidine transport: inhibition studies.

T1 sequence (O09014 whole entry): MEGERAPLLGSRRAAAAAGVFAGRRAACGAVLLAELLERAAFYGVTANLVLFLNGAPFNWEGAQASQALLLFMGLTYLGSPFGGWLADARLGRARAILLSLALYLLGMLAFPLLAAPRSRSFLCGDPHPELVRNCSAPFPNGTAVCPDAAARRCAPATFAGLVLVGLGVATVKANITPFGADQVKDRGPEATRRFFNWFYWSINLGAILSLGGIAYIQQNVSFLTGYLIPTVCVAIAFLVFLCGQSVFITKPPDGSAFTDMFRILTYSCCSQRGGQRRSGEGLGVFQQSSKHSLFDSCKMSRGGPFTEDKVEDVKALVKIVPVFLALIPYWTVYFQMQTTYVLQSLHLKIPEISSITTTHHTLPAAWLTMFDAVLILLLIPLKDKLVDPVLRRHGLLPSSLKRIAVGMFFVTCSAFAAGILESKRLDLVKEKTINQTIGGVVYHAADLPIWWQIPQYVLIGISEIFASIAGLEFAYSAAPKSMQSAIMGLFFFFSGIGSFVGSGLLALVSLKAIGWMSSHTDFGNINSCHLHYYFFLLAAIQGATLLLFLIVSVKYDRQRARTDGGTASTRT

Regarding `NCC(=O)NCC(=O)NCC(=O)O` [Gly-Gly-Gly] (H-Gly-Gly-Gly-OH), the “inhibition of histidine transport” value was “inhibited”. With `NCC(=O)NCC(=O)O` [Gly-Gly] (H-Gly-Gly-OH), the “inhibition of histidine transport” value is reported as “inhibited”. `CC(C)C[C@H](NC(=O)CN)C(=O)O` [Gly-Leu]: the “inhibition of histidine transport” value is listed as “inhibited”.

Regarding `NCCC(=O)N[C@@H](Cc1cnc[nH]1)C(=O)O` [carnosine], the “inhibition of histidine transport” value is reported as “inhibited”. For the same compound, the “carnosine uptake versus water-injected control oocytes” value ([3H]carnosine) is “significantly higher”.
